Experimental data from patent publication US3948911A, “Substituted quinoxaline-2-carboxamide 1,4-dioxides” (Pfizer Inc., priority 1974, dated 1976).
In brackets after ≈: the same amount, converted by molar mass. Read-outs that look alike come from different tables or passages of the source.

How the values were obtained:
Strep. pyogenes [1] = experiment: in vivo activity in mice infected with a lethal inoculum, survivors; settings: for IN VIVO Survivors (PO) Strep. pyogenes / IN VIVO Survivors-SC Strep. pyogenes / responders at 50 mg/kg: 50 mg./kg., survivors/treated mice; for responders at 50 mg/kg / responders at 100 mg/kg: Streptococcus pyogenes; for responders at 100 mg/kg: footnote (c): dosage = 100 mg./kg.
Experimental: (§1) In determining in vivo activity of the quinoxaline-1,4-dioxides of this invention, the test compound is administered to mice which have been infected by […] injection of a lethal inoculum of pathogenic bacteria. The test compound is administered using a multiple dosing regimen and using either the oral (PO) or the subcutaneous (SC) route. The inoculum of bacteria varies from about 1 to about 10 times the amount needed to kill 100% of the mice under the conditions of the test. At the end of the test, the activity of the compound is assessed by counting the number of survivors among the treated animals.
(§2) In vitro and in vivo activity of representative compounds of this invention, determined as aforesaid, are reported in the following tabulation for compounds of the formula: ##SPC3##

E. coli [2] = experiment: as above; settings: for IN VIVO Survivors-SC E. coli / responders at 25 mg/kg: subcutaneous; for IN VIVO Survivors-SC E. coli / responders at 25 mg/kg / IN VIVO Survivors (PO) E. coli: 25 mg./kg., survivors/treated mice
Experimental: as §1, §2

Strep. pyogenes [3] = experiment: in vitro antibacterial activity, two-fold serial dilution in Brain-Heart Infusion Broth, MIC; type: cell-based; settings: overnight, anaerobic; for MIC: Streptococcus pyogenes
Experimental: (§3) The broth is inoculated with bacteria and with the test quinoxaline-1,4-dioxide and then it is incubated overnight under anerobic conditions. On the next day, the test is read visually. The minimum inhibitory concentration (MIC) of the test compound is the lowest concentration which prevents turbidity, i.e., which prevents growth of the microorganism.
as §2

E. coli [4] = experiment: as above; type: cell-based; settings: for MIC: Escherichia coli, read-out: IN VITRO MIC E. coli
Experimental: as §3, §2

[5] = Brain-Heart Infusion Broth, overnight, anaerobic
[6] = sc, subcutaneous, read-out: IN VIVO Survivors-SC Strep. pyogenes (converted)
[7] = oral, read-out: IN VIVO Survivors (PO) Strep. pyogenes (converted)

Molecule	IN VIVO Survivors (PO) Strep. pyogenes (Strep. pyogenes [1]; oral)	IN VIVO Survivors-SC Strep. pyogenes (Strep. pyogenes [1]; subcutaneous)	IN VIVO Survivors-SC E. coli (E. coli [2])	IN VITRO MIC Strep. pyogenes (Strep. pyogenes [3]) [µg/mL]	IN VITRO MIC E. coli (E. coli [4]; [5]) [µg/mL]	responders at 50 mg/kg (Strep. pyogenes [1]; [6]) [%]	responders at 50 mg/kg (Strep. pyogenes [1]; [7]) [%]	responders at 25 mg/kg (E. coli [2]; Escherichia coli, sc) [%]	MIC (Strep. pyogenes [3]) [µg/mL]	MIC (E. coli [4]; [5]) [µg/mL]	responders at 100 mg/kg (Strep. pyogenes [1]; sc, subcutaneous, read-out: IN VIVO Survivors-SC Strep. pyogenes) [%]	responders at 100 mg/kg (Strep. pyogenes [1]; oral, read-out: IN VIVO Survivors (PO) Strep. pyogenes) [%]	IN VIVO Survivors (PO) E. coli (E. coli [2])	MIC (E. coli [4]) [µg/mL]	responders at 100 mg/kg (E. coli [2]; Escherichia coli, sc, read-out: IN VIVO Survivors-SC E. coli) [%]
6-(7)-Formyl-N-(2-Hydroxyethyl)-3-Methyl-2-Quinoxalinecarboxamide 1,4-Dioxide Ethylene Acetal [NHCH2 CH2 OH 6(7)-OO.angle.C.angle.H CH3]	3/10	2/10	3/10	0.781	25										
CC(=O)c1ccc2c(c1)[n+]([O-])c(C(=O)N(C)C)c(C)[n+]2[O-] [N(CH3)2 7-COCH3 CH3]						60	20	0	6.25 (≈ 21.6 µM)	6.25 (≈ 21.6 µM)					
N-Methyl-6(7)-Hydroxymethyl-2-Quinoxalinecarboxamide 1,4-Dioxide [NHCH3 6(7)-CH2 OH H]	6/10	10/10	4/10	0.781	1.562										
CC(=O)c1ccc2c(c1)[n+]([O-])c(C)c(C(=O)N(C)C)[n+]2[O-] [N(CH3)2 6-COCH3 CH3]								20	6.25 (≈ 21.6 µM)		60	50	0/5	6.25 (≈ 21.6 µM)	
Cc1c(C(N)=O)[n+]([O-])c2cc(C3(C)OCCO3)ccc2[n+]1[O-] [NH2 7-OO.angle.C.angle.CH3 CH3]						80	80	100	12.5 (≈ 40.9 µM)	12.5 (≈ 40.9 µM)			3/5		
N,3-Dimethyl-6(7)-Hydroxymethyl-2-Quinoxalinecarboxamide 1,4-Dioxide [NHCH3 6(7)-CH2 OH CH3]	3/10	3/10	8/10	50	25										
CC(=O)c1ccc2c(c1)[n+]([O-])c(C)c(C(N)=O)[n+]2[O-] [NH2 6-COCH3 CH3, 6- and 7-Acetyl-3-Methyl-2-Quinoxalinecarboxamide 1,4-dioxide]						100	90	100	< 0.391	< 0.391			5/5		
CNC(=O)c1c(C)[n+]([O-])c2ccc(CO)cc2[n+]1[O-] [NHCH3 7-CH2 OH CH3]						20	10	90	> 200	6.25 (≈ 23.7 µM)					
CNC(=O)c1c(C)[n+]([O-])c2cc(C(C)=O)ccc2[n+]1[O-] [NHCH3 6-COCH3 CH3]						60	40	80	0.781 (≈ 2.84 µM)	< 0.391			7/10		
CNC(=O)c1c(C)[n+]([O-])c2ccc(C(C)=O)cc2[n+]1[O-] [NHCH3 7-COCH3 CH3]						50	90	60	0.391 (≈ 1.42 µM)	0.391 (≈ 1.42 µM)					
CC(=O)c1ccc2c(c1)[n+]([O-])c(C(N)=O)c(C)[n+]2[O-] [NH2 7-COCH3 CH3, 6- and 7-Acetyl-3-Methyl-2-Quinoxalinecarboxamide 1,4-dioxide]						100	80	100	0.391 (≈ 1.5 µM)	< 0.391					
Ethyl 6(7)-Hydroxymethyl-3-Methyl-2-Quinoxaline-Carboxylate 1,4-Dioxide [OCH2 CH3 6(7)-CH2 OH CH3]	5/10	6/10	4/10	25	25										
CC(=O)c1ccc2c(c1)[n+]([O-])c(C)c(C(=O)NCCO)[n+]2[O-] [NHCH2 CH2 OH 6-COCH3 CH3]						50	20		< 0.391	< 0.391					30
